Test results: US9139557B2, “Carboxamide compounds and their use as calpain inhibitors” (Abbott GmbH & Co. KG, priority 2006, dated 2015)

What was measured:
cathepsin S = molecular target: T1, cathepsin S (Homo sapiens, UniProt P25774); experiment: Cathepsin S enzyme inhibition in vitro (kinetic fluorescence assay); type: biochemical; details: Ki(cathepsin S)/Ki(calpain) ratio
T1 construct: purchased Calbiochem 219343; host or cells: E. coli
Experimental: (§1) Testing for blockade of the corresponding enzymic activities was carried out by means of kinetic fluorescence assays (excitation 390 nm, emission 460 nm).
(§2) Apparent Ki values were calculated from the experimentally determined IC50 values by the Cheng-Prussoff relation assuming a reversible competitive enzyme inhibition. The Km values of the substrates used under the assay conditions indicated above were: 90 μM (Z-Phe-Arg-AMC, cathepsin B), 10 μM (Z-Gly-Pro-Arg-AMC, cathepsin K), 2 μM (Z-Phe-Arg-AMC, cathepsin L), and 30 μM (Z-Val-Val-Arg-AMC, cathepsin S).
(§3) The indicated Ki values are averages of the inhibition constants calculated on the basis of 2 to 4 independent dose-effect plots.
(§4) • 1. Calpain I: • 20 nM calpain-I—isolated from human erythrocytes (Calbiochem #208713), 100 μM Suc-Leu-Tyr-AMC (Bachem #1-1355) as substrate in buffer with 62 mM imidazole, 0.3 mM CaCl2, 0.10% CHAPS, 0.05% BSA, 1 mM DTT at pH 7.3 and room temperature. • 2. Cathepsin B: • 0.25 nM cathepsin B—isolated from human liver (Calbiochem #219362), 100 μM Z-Phe-Arg-AMC (Bachem #1-1160) as substrate 50 mM MES, 2 mM EDTA, 0.05% Brij 35, 2.5 mM L-cysteine, pH 6.0, room temperature. • 3. Cathepsin K: • 3 nM cathepsin K—activated from recombinant human procathepsin K from E. coli (Calbiochem #342001), 10 μM Z-Gly-Pro-Arg-AMC (Biomol #P-142) as substrate in 50 mM MES, 2 mM EDTA, 0.05% Brij 35, 2.5 mM L-cysteine, pH 6.0, room temperature. • 4. Cathepsin L: • 1 nM cathepsin L—isolated from human liver (Calbiochem #219402), 2 μM Z-Phe-Arg-AMC (Bachem #1-1160) as substrate in 50 mM MES, 2 mM EDTA, 0.05% Brij 35, 2.5 mM L-cysteine, pH 6.0, room temperature. • 5. Cathepsin S: • 0.5 nM recombinant human cathepsin S from E. coli (Calbiochem #219343), 20 μM Z-Val-Val-Arg-AMC (Bachem #1-1540) as substrate in 50 mM MES, 2 mM EDTA, 0.05% Brij 35, 2.5 mM L-cysteine, pH 6.0, room temperature.

cathepsin L = molecular target: T2, cathepsin L (Homo sapiens, UniProt P07711); experiment: Cathepsin L enzyme inhibition in vitro (kinetic fluorescence assay); type: biochemical; details: Ki(cathepsin L)/Ki(calpain) ratio
T2 construct: cathepsin L—isolated from human liver; purchased Calbiochem 219402; host or cells: human liver (tissue isolate)
T2 sequence (P07711 114-333): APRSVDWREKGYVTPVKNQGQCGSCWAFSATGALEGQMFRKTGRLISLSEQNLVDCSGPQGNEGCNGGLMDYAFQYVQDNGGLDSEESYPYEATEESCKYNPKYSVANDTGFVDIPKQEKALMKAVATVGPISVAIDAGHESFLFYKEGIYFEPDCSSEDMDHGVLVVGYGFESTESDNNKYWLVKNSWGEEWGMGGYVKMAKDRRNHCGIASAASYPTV
Experimental: as §1, §2, §3, §4

T1 sequence (P25774 115-331): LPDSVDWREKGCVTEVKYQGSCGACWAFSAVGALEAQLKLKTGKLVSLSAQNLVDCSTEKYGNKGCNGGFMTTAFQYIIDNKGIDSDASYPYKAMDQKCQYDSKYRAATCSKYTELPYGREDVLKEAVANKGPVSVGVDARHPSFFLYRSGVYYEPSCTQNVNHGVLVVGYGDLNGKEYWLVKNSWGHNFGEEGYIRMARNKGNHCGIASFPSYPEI

SMILES | Sel cat. S (cathepsin S) | Sel cat. L (cathepsin L)
NC(=O)C(=O)C(Cc1ccccc1)NC(=O)c1cccnc1-n1ccc(-c2ccncc2)n1 (centres unmarked) [Example 65, N-(3-Amino-1-benzyl-2,3-dioxopropyl)-2-(3-pyridin-4-yl-1H-pyrazol-1-yl)nicotinamide] | ++ (++ means a Ki(cathepsin S)/Ki(calpain) ratio of ≧100) | –
NC(=O)C(=O)C(Cc1ccccc1)NC(=O)c1cccnc1-n1cc(-c2ccccc2F)cn1 (centres unmarked) [Example 104, N-[3-Amino-2,3-dioxo-1-(phenylmethyl)propyl]-2-[4-(2-fluorophenyl)-1H-pyrazol-1-yl]pyridine-3-carboxamide] | + (+ means 50≦Ki(cathepsin S)/Ki(calpain)<100) | –
Cl.NC(=O)C(=O)C(Cc1ccccc1)NC(=O)c1cccnc1-n1ccc(-c2cccc(CN3CCOCC3)c2)n1 (centres unmarked) [Example 52, N-(3-Amino-1-benzyl-2,3-dioxopropyl)-2-{3-[3-(morpholin-4-ylmethyl)phenyl]-1H-pyrazol-1-yl}nicotinamide hydrochloride] | ++ (++ means a Ki(cathepsin S)/Ki(calpain) ratio of ≧100) | –
CCN(CC)c1ccc(-c2ccn(-c3ncccc3C(=O)NC(Cc3ccccc3)C(=O)C(N)=O)n2)cc1 (centres unmarked) [Example 42, N-(3-Amino-1-benzyl-2,3-dioxopropyl)-2-{3-[4-(diethylamino)phenyl]-1H-pyrazol-1-yl}nicotinamide] | ++ (++ means a Ki(cathepsin S)/Ki(calpain) ratio of ≧100) | –
CCCCC(NC(=O)c1cccnc1-n1ccc(-c2ccccc2)n1)C(=O)C(N)=O (centres unmarked) [Example 6, N-{1-[Amino(oxo)acetyl]pentyl}-2-(3-phenyl-1H-pyrazol-1-yl)nicotinamide] | + (+ means 50≦Ki(cathepsin S)/Ki(calpain)<100) | –
NC(=O)C(=O)C(Cc1ccccc1)NC(=O)c1cccnc1-n1cc(CCN2CCOCC2)c(-c2ccc(F)cc2)n1 (centres unmarked) [Example 165, N-[3-Amino-2,3-dioxo-1-(phenylmethyl)propyl]-2-[3-(4-fluorophenyl)-4-(2-morpholin-4-ylethyl)-1H-pyrazol-1-yl]pyridine-3-carboxamide] | ++ (++ means a Ki(cathepsin S)/Ki(calpain) ratio of ≧100) | –
COCc1cn(-c2ncccc2C(=O)NC(Cc2ccccc2)C(=O)C(N)=O)nc1-c1ccc(F)cc1 (centres unmarked) [Example 170, N-[3-Amino-2,3-dioxo-1-(phenylmethyl)propyl]-2-{3-(4-fluorophenyl)-4-[(methyloxy)methyl]-1H-pyrazol-1-yl}pyridine-3-carboxamide] | – | + (+ means 30≦Ki(cathepsin L)/Ki(calpain)<50)
NC(=O)C(=O)C(Cc1ccccc1)NC(=O)c1cccnc1-n1cc(CN2CCOCC2)c(-c2cccc(C(F)(F)F)c2)n1 (centres unmarked) [Example 177, N-[3-Amino-2,3-dioxo-1-(phenylmethyl)propyl]-2-{4-(morpholin-4-ylmethyl)-3-[3-(trifluoromethyl)phenyl]-1H-pyrazol-1-yl}pyridine-3-carboxamide] | ++ (++ means a Ki(cathepsin S)/Ki(calpain) ratio of ≧100) | –
CCN(CC)Cc1ccc(-c2ccn(-c3ncccc3C(=O)NC(Cc3ccccc3)C(=O)C(N)=O)n2)cc1.Cl (centres unmarked) [Example 43, N-(3-Amino-1-benzyl-2,3-dioxopropyl)-2-(3-{4-[(diethylamino)methyl]phenyl}-1H-pyrazol-1-yl)nicotinamide hydrochloride] | ++ (++ means a Ki(cathepsin S)/Ki(calpain) ratio of ≧100) | –
CCCCC(NC(=O)c1cc(Cl)cnc1-n1cnc(-c2ccccc2)c1)C(=O)C(N)=O.Cl (centres unmarked) [Example 24, N-{1-[Amino(oxo)acetyl]pentyl}-5-chloro-2-(4-phenyl-1H-imidazol-1-yl)nicotinamide hydrochloride] | – | + (+ means 30≦Ki(cathepsin L)/Ki(calpain)<50)
NC(=O)C(=O)C(Cc1ccccc1)NC(=O)c1cccnc1-n1cnc(-c2ccc(N3CCOCC3)cc2)c1 (centres unmarked) [Example 14, N-(3-Amino-1-benzyl-2,3-dioxopropyl)-2-[4-(4-morpholin-4-ylphenyl)-1H-imidazol-1-yl]nicotinamide] | ++ (++ means a Ki(cathepsin S)/Ki(calpain) ratio of ≧100) | –
NC(=O)C(=O)C(Cc1ccccc1)NC(=O)c1cccnc1-n1ccc(-c2ccc(-n3ccnc3)cc2)n1 (centres unmarked) [Example 101, N-[3-Amino-2,3-dioxo-1-(phenylmethyl)propyl]-2-{3-[4-(1H-imidazol-1-yl)phenyl]-1H-pyrazol-1-yl}pyridine-3-carboxamide] | ++ (++ means a Ki(cathepsin S)/Ki(calpain) ratio of ≧100) | –
CCCCC(NC(=O)c1cccnc1-n1ccc(-c2ccc(CN(CC)CC)cc2)n1)C(=O)C(N)=O (centres unmarked) [Example 44, N-{1-[Amino(oxo)acetyl]pentyl}-2-(3-{4-[(diethylamino)methyl]phenyl}-1H-pyrazol-1-yl)nicotinamide] | + (+ means 50≦Ki(cathepsin S)/Ki(calpain)<100) | –
CCCCC(NC(=O)c1cccnc1-n1ccc(-c2ccc(CN3CCOCC3)cc2)n1)C(=O)C(N)=O (centres unmarked) [Example 45, N-{1-[Amino(oxo)acetyl]pentyl}-2-{3-[4-(morpholin-4-ylmethyl)phenyl]-1H-pyrazol-1-yl}nicotinamide] | + (+ means 50≦Ki(cathepsin S)/Ki(calpain)<100) | –
CCCCC(NC(=O)c1cccnc1-n1cnc(-c2ccccc2)c1)C(=O)C(N)=O (centres unmarked) [Example 2, N-{1-[Amino(oxo)acetyl]pentyl}-2-(4-phenyl-1H-imidazol-1-yl)nicotinamide] | – | ++ (++ means a Ki(cathepsin L)/Ki(calpain) ratio of ≧50)
CN(C)Cc1cn(-c2ncccc2C(=O)NC(Cc2ccccc2)C(=O)C(N)=O)nc1-c1cccc(C(F)(F)F)c1 (centres unmarked) [Example 176, N-[3-Amino-2,3-dioxo-1-(phenylmethyl)propyl]-2-{4-[(dimethylamino)methyl]-3-[3-(trifluoromethyl)phenyl]-1H-pyrazol-1-yl}pyridine-3-carboxamide] | ++ (++ means a Ki(cathepsin S)/Ki(calpain) ratio of ≧100) | –
CCCCC(NC(=O)c1cccnc1-n1ccc(-c2ccc(N(CC)CC)cc2)n1)C(=O)C(N)=O (centres unmarked) [Example 47, N-{1-[Amino(oxo)acetyl]pentyl}-2-{3-[4-(diethylamino)phenyl]-1H-pyrazol-1-yl}nicotinamide] | ++ (++ means a Ki(cathepsin S)/Ki(calpain) ratio of ≧100) | –
Cc1cn(-c2ncccc2C(=O)NC(Cc2ccccc2)C(=O)C(N)=O)nc1-c1ccccc1 (centres unmarked) [Example 86, N-[3-Amino-2,3-dioxo-1-(phenylmethyl)propyl]-2-(4-methyl-3-phenyl-1H-pyrazol-1-yl)pyridine-3-carboxamide] | – | ++ (++ means a Ki(cathepsin L)/Ki(calpain) ratio of ≧50)
NC(=O)C(=O)C(Cc1ccccc1)NC(=O)c1cccnc1-n1cc(CN2CCCC2)c(-c2cccc(C(F)(F)F)c2)n1 (centres unmarked) [Example 178, N-[3-Amino-2,3-dioxo-1-(phenylmethyl)propyl]-2-{4-(pyrrolidin-1-ylmethyl)-3-[3-(trifluoronnethyl)phenyl]-1H-pyrazol-1-yl}pyridine-3-carboxamide] | ++ (++ means a Ki(cathepsin S)/Ki(calpain) ratio of ≧100) | –
NC(=O)C(=O)C(Cc1ccccc1)NC(=O)c1cccnc1-n1ccc(-c2ccc(CN3CCOCC3)cc2)n1 (centres unmarked) [Example 46, N-(3-Amino-1-benzyl-2,3-dioxopropyl)-2-{3-[4-(morpholin-4-ylmethyl)phenyl]-1H-pyrazol-1-yl}nicotinamide] | ++ (++ means a Ki(cathepsin S)/Ki(calpain) ratio of ≧100) | –
